Results reported in paper PMC12040169 (PLOS Biology, 2025).
In brackets after ≈: the same amount, converted by molar mass.

Columns and labels:
HeLa = conditions: bulk resorufin, single well, 28.5 h, 10 µM, Bulk resorufin fluorescence
in vitro [1] = conditions: human, hela cells, % viability
[2] = system: T1, CTL2-GFP (C. trachomatis L2/434/Bu, GFP-expressing); assay: microbe, parasite or virus in culture; parameters: species or system HeLa; C. trachomatis growth in HeLa, dose-response, mean of bulk GFP fluorescence and imaged total inclusion area; conditions: Chlamydia trachomatis, 28.5 h; mean of GFP and inclusion area
T1 construct: L2/434/Bu, GFP-expressing
Text: (§1) We screened a library of 36,785 small molecules displaying drug-like properties and covering a wide chemical space (Fig 1A and S2A Data). In this process, we also complemented the assay described above with an imaging-based readout (Fig 1B). After measurements of bulk GFP and resorufin fluorescence, cells were fixed, stained with the DNA dye Hoechst, and imaged at a high-content imaging platform to detect chlamydial inclusions (GFP) and host cell nuclei (Hoechst). The total area and number of inclusions in individual wells and the number of nuclei then served as additional proxies for chlamydial growth and host cell viability. […] MICs were calculated as described above.

in vitro [3] = assay: in vitro; parameters: Viability of infected HeLa host cells, resazurin conversion, bulk resorufin fluorescence relative to DMSO; conditions: human, hela cells; bulk resorufin, mean of 3
[4] = system: T1, CTL2-GFP (C. trachomatis L2/434/Bu, GFP-expressing); assay: microbe, parasite or virus in culture; parameters: C. trachomatis growth in HeLa, dose-response, mean of bulk GFP fluorescence and imaged total inclusion area; conditions: Chlamydia trachomatis, HeLa, 28.5 h; mean of GFP and inclusion area
Text: as §1

SMILES	% viability (HeLa) [%]	viability at 28.5 h, 10 µM (in vitro [1]) [%]	MIC [2] [µM]	viability at 28.5 h, 0.000416667 µM (in vitro [3]) [%]	viability at 28.5 h, 0.00125 µM (in vitro [3]) [%]	viability at 28.5 h, 0.00375 µM (in vitro [3]) [%]	viability at 28.5 h, 0.0123333 µM (in vitro [3]) [%]	viability at 28.5 h, 0.037 µM (in vitro [3]) [%]	viability at 28.5 h, 0.111 µM (in vitro [3]) [%]	viability at 28.5 h, 0.333 µM (in vitro [3]) [%]	viability at 28.5 h, 1 µM (in vitro [3]) [%]	viability at 28.5 h, 3 µM (in vitro [3]) [%]	viability at 28.5 h, 10 µM (in vitro [3]) [%]	viability at 28.5 h, 30 µM (in vitro [3]) [%]	IC50 [4] [µM]
COc1cc2[nH]c(=S)n(C3CCCC3)c(=O)c2cc1OC [CBK288518]	93.5	84.9													
CC(=O)Nc1ccc(S(N)(=O)=O)c2ccccc12 [CBK288522]	94	83.5													
O=C(NCCCN1CCCCC1)/C(=N\O)c1ccccc1 [CBK288524]	85.9	97.7													
CCCNC(=O)NS(=O)(=O)c1ccc(C)cc1 [CBK288527]	90.2	100													
COC(=O)[C@@H]1Cc2c([nH]c3ccccc23)[C@H]2C[C@H](NCCO)C[C@@H](c3ccccc3)N21 [CBK289167]	97.8	94.8													
Cn1nnc2cc(NC(=O)N3CC4(C)CC3CC(C)(C)C4)ccc21 (stereo not drawn) [CBK304389]	95.3	94.6													
CCOc1ccc(-c2ccnc(NC[C@@H]3CCCO3)n2)cc1C(=O)O [CBK306568]	89.2	86.5													
CC[C@H](CO)NC(=O)c1coc(COc2ccc3sc(C)nc3c2)n1 [CBK306602]	93.5	85.3													
CCCCc1ccc(Nc2csc(N)n2)cc1 [c11e]			3.11 (≈ 0.768 µg/mL)	97.7	95.9	96.4	104	92.8	97.8	99.6	102	92.4	92.8	69.9	0.956
CN(C(=O)c1ccc(Cl)c(Cl)c1)[C@H]1CCC[C@H]1N1CCCC1 [c12e]			1.7 (≈ 0.581 µg/mL)	93	89.3	91.4	89	88.9	92.8	88.7	89	85.2	92.7	82.8	1.02
O=C(CC1SC(Nc2ccc(O)cc2)=NC1=O)c1ccccc1 (stereo not drawn) [c13e]			4.56 (≈ 1.49 µg/mL)	95	92.7	87.7	95	87.6	92	86.2	88.7	85.2	85.6	83.8	1.03
CC(Cc1nc(-c2nccn2C)cs1)n1cc(Cl)cn1 (stereo not drawn) [c14e]			3.65 (≈ 1.12 µg/mL)	104	110	107	105	103	106	103	111	108	110	110	1.03
CCCN(CCC)CCc1cccc2c1CCN2C(=O)c1cc2ccccc2s1 [c15e]			3.22 (≈ 1.31 µg/mL)	87.3	89.2	89.8	88.8	85.5	94.8	94.4	90.6	91.2	99.9	91.3	1.15
CCOc1ccsc1C(=O)NC1Cc2ccccc2C1 [c16e]			3.2 (≈ 0.92 µg/mL)	89.7	86.9	89.9	85.4	87.1	85.4	87.5	84.6	84.5	84.3	87	1.19
Cc1ccc2[nH]c3c(c2c1)CCOC31CCN(Cc2ccccc2-c2ccccc2)CC1 [c22e]			3.81 (≈ 1.61 µg/mL)	98.6	89.4	94.8	87.6	94.6	86.6	87.8	85.7	85.7	86.9	70.7	1.8
CC(=O)N1CCc2sccc2C1c1ccccc1NCc1ccoc1 (stereo not drawn) [c28e]			5.24 (≈ 1.85 µg/mL)	92.9	92.5	86	93.2	90.6	89.2	86.1	90.6	82.6	87.9	83	2.6
CCCCc1ccc(NC(=N)Nc2nc(C)cc(C)n2)cc1 [c33e]			11.7 (≈ 3.49 µg/mL)	90.9	88	91.3	91.5	93.1	92.6	94.3	88.2	98.2	101	112	3.25
FC(F)(F)CCN1CCC2(CC1)NCCc1c2[nH]c2ccc(Cl)cc12 [c34e]			11.9 (≈ 4.42 µg/mL)	86.8	91.2	88.2	90.3	88.5	93.2	89.1	91.8	88.3	93.9	71.8	3.31
O=C(CSc1nnc(-c2cccnc2)o1)c1ccccc1 [c35e]			11.9 (≈ 3.54 µg/mL)	99.4	96.5	91.9	91.4	87	90.5	87	90.5	84.4	87	88.7	3.71
COc1cccc(CNC(C(=O)O)c2ccc3c(c2)OCO3)c1 (stereo not drawn) [c40e]			10.8 (≈ 3.42 µg/mL)	109	98.4	103	95.7	99.4	102	103	104	103	99.7	89.7	4.96
O=[N+]([O-])c1ccc(-n2cnc3ccccc32)c([N+](=O)[O-])c1 [c41e]			11.2 (≈ 3.17 µg/mL)	99	96.9	102	101	104	97.8	104	99.3	99	101	96.3	5.2
O=C(NCCc1c[nH]c2ccc(Cl)cc12)c1c(F)ccc(Cl)c1F [c42e]			5.43 (≈ 2 µg/mL)	100	101	98.1	104	99.6	101	106	109	107	103	107	5.3
CCC(c1ccc(F)cc1)N(C)C(=O)Cn1cc(C(=O)NC2CCCCC2)ccc1=O (stereo not drawn) [c44e]				93.4	91.8	93.8	89.2	90.8	86.7	87.7	85.4	87.9	83.2	87.2	5.83
